Experimental data taken from paper PMC7106726, “Robust high-throughput assays to assess discrete steps in ubiquitination and related cascades” (BMC Molecular and Cell Biology, 2020).
Like-named read-outs stand apart in the source and are kept apart here.

Columns and labels:
[1] = target: T1, FLAG-Uba1 (Homo sapiens, UniProt P22314); experiment: AlphaScreen Uba1~ubiquitin thioester formation; type: biochemical
T1 construct: GST- and FLAG-tagged human Uba1 in pBJ842, expressed in S. cerevisiae BJ5654, GST cleaved with PreScission protease, FLAG tag kept
T1 sequence (P22314 2-1058): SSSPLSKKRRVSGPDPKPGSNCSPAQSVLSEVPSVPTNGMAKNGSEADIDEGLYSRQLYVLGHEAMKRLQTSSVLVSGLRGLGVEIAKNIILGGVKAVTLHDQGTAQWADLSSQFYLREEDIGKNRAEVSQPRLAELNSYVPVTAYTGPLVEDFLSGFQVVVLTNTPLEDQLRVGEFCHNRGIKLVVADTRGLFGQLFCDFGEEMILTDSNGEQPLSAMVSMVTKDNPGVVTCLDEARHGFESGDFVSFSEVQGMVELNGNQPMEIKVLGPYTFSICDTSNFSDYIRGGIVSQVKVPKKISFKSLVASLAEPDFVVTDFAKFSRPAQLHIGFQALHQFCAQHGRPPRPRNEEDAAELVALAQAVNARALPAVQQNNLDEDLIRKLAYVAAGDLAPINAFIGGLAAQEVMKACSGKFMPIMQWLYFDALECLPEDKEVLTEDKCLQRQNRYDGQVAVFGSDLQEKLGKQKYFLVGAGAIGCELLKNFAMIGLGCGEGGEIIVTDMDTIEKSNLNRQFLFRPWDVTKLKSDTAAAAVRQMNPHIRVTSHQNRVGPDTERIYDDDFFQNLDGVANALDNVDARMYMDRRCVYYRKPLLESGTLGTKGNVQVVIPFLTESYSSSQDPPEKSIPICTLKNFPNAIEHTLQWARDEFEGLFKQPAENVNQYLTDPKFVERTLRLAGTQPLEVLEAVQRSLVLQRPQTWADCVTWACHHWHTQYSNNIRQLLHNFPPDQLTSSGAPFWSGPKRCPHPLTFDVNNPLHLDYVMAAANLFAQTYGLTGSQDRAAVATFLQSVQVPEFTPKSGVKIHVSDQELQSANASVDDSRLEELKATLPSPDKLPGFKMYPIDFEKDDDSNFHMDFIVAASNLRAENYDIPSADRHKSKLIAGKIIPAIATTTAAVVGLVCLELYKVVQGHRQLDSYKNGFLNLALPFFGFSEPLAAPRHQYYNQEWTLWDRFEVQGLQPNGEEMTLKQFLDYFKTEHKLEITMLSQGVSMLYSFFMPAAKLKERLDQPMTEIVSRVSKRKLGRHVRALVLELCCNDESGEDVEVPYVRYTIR

[2] = target: T1, FLAG-Uba1; experiment: AlphaScreen Uba1~ubiquitin thioester formation; type: biochemical; conditions: read-out: IC50for inhibition of PCNA ubiquitination (Alpha)
Description: AlphaScreen Uba1~ubiquitin thioester formation on FLAG-Uba1

[3] = read-out: IC50for inhibition of Uba1~Ub thioester formation (Alpha)
[4] = read-out: IC50for inhibition of PCNA ubiquitination (Alpha)

Structure (SMILES)	IC50 [1, 3] [µM]	other results
CCCOC(=O)c1cc(O)c(O)c(O)c1 [PG]		IC50 [1, 4]: > 500 µM
O=c1c(O)c(-c2cc(O)c(O)c(O)c2)oc2cc(O)cc(O)c12 [Myr]	1.59	
Oc1cc(O)c2c(c1)O[C@H](c1ccc(O)c(O)c1)[C@H](O)C2 [EC]		IC50 [1, 4]: > 500 µM
CCCCCCCCOC(=O)c1cc(O)c(O)c(O)c1 [OG]		IC50 ([1]; 15 min preincubation, biotin-ubiquitin, 2 mM ATP, 8 mM MgCl2, pH 7.5, 25 °C, 30 min, 1% DMSO, read-out: IC50for inhibition of Uba1~Ub thioester formation (Alpha)): 13.4 µM
Oc1cc(O)c2c(c1)O[C@H](c1ccc(O)c(O)c1)[C@@H](O)C2 [Cat]		IC50 ([1]; read-out: IC50for inhibition of PCNA ubiquitination (Western blot) [19]): > 500 µM
O=C(O)c1cc(O)c(O)c(O)c1 [GA]		IC50 [2]: > 500 µM
O=C1c2c(O)cc(O)cc2O[C@H](c2cc(O)c(O)c(O)c2)[C@H]1O [DM]	27.5	

More lines, main results first:

IC50 [1, 3] [µM]	Structure (SMILES)	other results
5.96	Oc1cc(O)c2c(c1)O[C@H](c1cc(O)c(O)c(O)c1)[C@H](O)C2 [EGC]	
44.4	CCCCCCCCCCCCOC(=O)c1cc(O)c(O)c(O)c1 [DG]	
0.769	O=C(O[C@@H]1Cc2c(O)cc(O)cc2O[C@@H]1c1ccc(O)c(O)c1)c1cc(O)c(O)c(O)c1 [ECG]	
